In brackets after ≈: the same amount, converted by molar mass.
What was measured:
Naegleria fowleri [1] = test: Anti-ameobic activity against Naegleria fowleri NF69 ATCC 30215 assessed as growth inhibition incubated for 48 hrs relative to control; format: functional, organism-based; details: for growth inhibition (GI): time 48 hrs
SH-SY5Y [2] = test: Cytotoxicity against human SH-SY5Y cells assessed as reduction in cell viability at 20 uM incubated for 72 hrs by celltiter glow assay; format: functional
Naegleria fowleri [3] = test: Anti-ameobic activity against Naegleria fowleri NF69 ATCC 30215 incubated for 48 hrs; format: functional, organism-based; details: NF69 ATCC 30215, 48 h
SH-SY5Y [4] = test: Cytotoxicity against human SH-SY5Y cells assessed as reduction in cell viability at 1 uM incubated for 72 hrs by celltiter glow assay; format: functional
SH-SY5Y [5] = test: Cytotoxicity against human SH-SY5Y cells assessed as reduction in cell viability incubated for 72 hrs by celltiter glow assay; format: functional
[6] = Lipophilicity, log D of the compound in octanol/phosphate buffer at pH 7.4 incubated for 2 mins by LC-MS analysis; format: physicochemical
[7] = Kinetic solubility of compound in phosphate buffer at pH 7.4 incubated for 24 hrs by HPLC analysis; format: physicochemical; details: read-out: Kinetic_solubility
[8] = Microsomal stability in CD-1 mouse liver microsome assessed as half life preincubated for 60 mins followed by NADPH addition and measured after 60 mins by HPLC analysis; format: ADME; details: liver microsomes, time 120 min
[9] = Stability in CD-1 mouse plasma assessed as parent compound remaining incubated for 20 mins by LC-MS analysis; format: ADME, cell-free; details: read-out: Stability
[10] = Plasma protein binding in CD-1 mouse measured for 4 hrs by LC-MS/MS analysis; format: ADME, cell-free; details: read-out: PPB (converted)
[11] = Permeability of compound incubated for 18 hrs by PAMPA assay; format: ADME; details: read-out: permeability

| SMILES | Cell viability remaining (SH-SY5Y [2]) [%] | EC50 (Naegleria fowleri [3]) [µM] | growth inhibition (GI) (Naegleria fowleri [1]) [%] | Activity (SH-SY5Y [4]) [%] | other results |
| --- | --- | --- | --- | --- | --- |
| CC(C)(C)c1ccc(C(=O)Nc2cc(Cl)cnc2C(=O)[O-])cc1.[Na+] | 61 |  |  |  | EC50 (Naegleria fowleri [1]; Naegleria fowleri, NF69 ATCC 30215, 48 h): > 10 µM |
| CC(C)(C)c1ccc(CNc2cc(Cl)ncc2C(=O)O)cc1 |  | > 10 |  |  |  |
| CC(C)(C)c1ccc(S(=O)(=O)Nc2cc(Cl)cnc2C(=O)O)cc1 | 100 | > 10 | 16.5 | 100 |  |
| CC(C)(C)c1ccc(CNc2cc(Cl)cnc2C(N)=O)cc1 | 77 | > 10 | 27.7 | 100 |  |
| CC(C)(C)c1ccc(CCc2cc(Cl)cnc2C(=O)O)cc1 | 85 | > 10 | 0 | 100 |  |
| CC(Nc1cc(Cl)cnc1C(=O)O)c1ccc(C(C)(C)C)cc1 (stereo unspecified) | 100 | > 10 | 38.2 | 98 |  |
| COc1ccc(CNc2cc(Cl)cnc2C(=O)O)cc1 | 95 | > 10 | 6.6 | 98 |  |
| CC(C)(C)c1ccc(CNc2cc(F)cnc2C(=O)O)cc1 | 73 | 5 | 99.5 | 91 |  |
| COc1ccc(CCNc2cc(Cl)cnc2C(=O)O)cc1 | 71 | > 10 | 12.9 | 95 |  |
| CC(C)(C)c1ccc(CNc2cncc(Cl)c2)cc1 | 88 | > 10 | 17.6 | 100 |  |
| CC(C)(C)c1ccc(CC(=O)Nc2cc(Cl)cnc2C(=O)O)cc1 | 19 | > 10 | 9.9 | 76 |  |
| CC(C)(C)c1ccc(CNc2cc(Cl)c(-c3ccccc3)nc2C(=O)O)cc1 | 82 | > 10 | 20.4 | 100 |  |
| CC(C)(C)c1ccc(CNc2cc(-c3ccccc3)cnc2C(=O)O)cc1 | 81 | 5 | 99.3 | 100 |  |
| CC(C)(C)c1ccc(Nc2cc(Cl)cnc2C(=O)O)cc1 | 57 | > 10 | 4.5 | 98 |  |
| CC(C)(C)c1ccc(CNc2cc(Cl)cnc2C(=O)O)s1 | 90 | > 10 | 0 | 95 |  |
| CC(C)(C)c1ccc(CCNc2cc(Cl)cnc2C(=O)O)cc1 | 100 | 3.3 | 99.8 | 95 |  |
| O=C(O)c1ncc(Cl)cc1NCCc1ccc(C(F)(F)F)cc1 | 57 | > 10 | 44.8 | 59 |  |
| CC(C)(C)c1ccc(CNc2cc(N3CCOCC3)cnc2C(=O)O)cc1 | 75 | 11.5 | 52.8 | 85 |  |
| CC(C)(C)c1ccc(CNc2scnc2C(=O)O)cc1 |  | > 10 |  |  |  |

| SMILES | Cell viability remaining (SH-SY5Y [2]) [%] | EC50 (Naegleria fowleri [3]) [µM] | growth inhibition (GI) (Naegleria fowleri [1]) [%] | Activity (SH-SY5Y [4]) [%] | other results |
| --- | --- | --- | --- | --- | --- |
| Cc1cnc(C(=O)O)c(NCc2ccc(C(C)(C)C)cc2)c1 | 98 | 1.4 | 100.4 | 96 | CC50 (SH-SY5Y [5]): > 20 µM; logD at 2 min [6]: 2.4; solubility kinetic at 24 h [7]: 208 µM (≈ 62.1 µg/mL); half-life [8]: 49 min |
| CC(C)(C)c1ccc(CNc2cc(Cl)cnc2C#N)cc1 | 57 | > 10 | 22.2 | 96 |  |
| CC(C)(C)c1ncc(CNc2cc(Cl)cnc2C(=O)O)s1 | 67 | > 10 | 0 | 95 |  |
| COc1cnc(C(=O)O)c(NCCc2ccc(C(C)(C)C)cc2)c1 | 57 | 1.1 | 100.4 | 87 |  |
| O=C(O)c1ncc(Cl)cc1NCc1ccc(C(F)(F)F)cc1 | 66 | > 10 | 29.5 | 78 |  |
| CC(C)(C)c1ccc(CNc2cc(Cl)c(Cl)nc2C(=O)O)cc1 | 100 | > 10 | 12.3 | 100 |  |
| CC(C)(C)c1ccc(CNc2cc(Cl)c(Br)nc2C(=O)O)cc1 | 100 | > 10 | 17.6 | 100 |  |
| CC(C)(C)c1ccc(CNc2cccnc2C(=O)O)cc1 | 89 | 3 | 99.2 | 100 |  |
| CC(C)(C)c1ccc(CNc2cncnc2C(=O)O)cc1 |  | > 10 |  |  |  |
| COc1cnc(C(=O)O)c(NCc2ccc(C(C)(C)C)cc2)c1 | 100 | 0.92 | 100.3 | 98 | CC50 (SH-SY5Y [5]): > 20 µM; logD at 2 min [6]: 2.3; solubility kinetic at 24 h [7]: 199 µM (≈ 62.6 µg/mL); half-life [8]: 72 min; remaining at 20 min [9]: 92%; fraction unbound at 4 h [10]: 0.003; Papp at 18 h [11]: 9.69 ×10⁻⁶ cm/s |
| CC(C)(C)c1ccc(CNc2cc(Cl)cnc2C(=O)O)cc1 | 53 | 6 | 98.8 | 85 | CC50 (SH-SY5Y [5]): > 20 µM; logD at 2 min [6]: 2.3; solubility kinetic at 24 h [7]: 84 µM (≈ 26.8 µg/mL); half-life [8]: 38 min; remaining at 20 min [9]: 93%; fraction unbound at 4 h [10]: 0.009; Papp at 18 h [11]: 8.5 ×10⁻⁶ cm/s |
| O=C(O)c1ncc(Cl)cc1NCc1ccccc1 | 95 | > 10 | 0 | 95 |  |
| O=C(O)c1ncc(Cl)cc1NCc1ccc(F)cc1 | 100 | > 10 | 22.8 | 93 |  |
| CC(C)(C)c1ccc(CNc2cc(Br)cnc2C(=O)O)cc1 | 85 | 7.2 | 84.4 | 99 |  |
| Cc1ccc(CNc2cc(Cl)cnc2C(=O)O)cc1 | 94 | > 10 | 0 | 100 |  |
| NC(=O)N1c2ccccc2C=Cc2ccccc21 [CARBAMAZEPINE] |  |  |  |  | Papp at 18 h [11]: 6.63 ×10⁻⁶ cm/s |
| CCCCCCCCCCCCCCCCOP(=O)([O-])OCC[N+](C)(C)C [MILTEFOSINE] |  | 35.7 |  |  |  |
| CC(C)(C)NCC(O)COc1cccc2c1CC(O)C(O)C2 (stereo unspecified) [NADOLOL] |  |  |  |  | Papp at 18 h [11]: < 0.01 ×10⁻⁶ cm/s |
